Data reported in US10391098B2, “Antisense antibacterial compounds and methods” (priority 2014, dated 2019).
Read-outs that look alike come from different tables or passages of the source. {(RXR)4XB} = cell-penetrating peptide (R arginine, X 6-aminohexanoic acid, B beta-alanine), conjugated via its C-terminal beta-alanine linked through a pip-PDA moiety; {TEG} = triethylene glycol end group (as defined in the publication); {Acetyl} = acetyl cap

How the values were obtained:
[1] = test system: Acinetobacter spp. (~34 strains); test: PPMO MIC (IC75) in panel of Acinetobacter strains, rich and minimal media; details: nutrient rich MHII media
Protocol: Bacteria. Bacterial strains were obtained through the clinical microbiology lab at UT Southwestern unless otherwise noted. Strains also included those purchased through ATCC, the E. coli Genetic Stock Center (Yale University), or received from collaborators. They included both genome-sequenced isolates as well as clinical isolates with varying levels of antibiotic resistance. Single colonies were grown aerobically to stationary phase (1-2 mLs at 37° C., 250 rpm) in Mueller Hinton cation-adjusted (MH II) broth (Becton-Dickinson Difco BBL, Franklin Lakes, N.J., USA). The OD600 was taken and a working stock of 5×10^5 was generated based on the individual strain's colony forming units (CFU)/mL/OD. Working stocks were diluted in 150 mM NaCl and plated on tryptic-soy agar w/5% sheep blood plate (Remel, Lenexa, Kans.) to verify the starting concentration. For minimal nutrient conditions, E. coli was incubated in MOPS minimal medium (Neidhart et al., J Bacteriol 119:736-747, 1974), and Acinetobacter was performed in AB minimal media (Agrobacterium minimal media) with 10 mM citrate (Clark, J Mol Biol 23:99-112, 1967).
Minimal Inhibitory Concentration Assays. […] Optical density (OD) of cultures was read in a microplate spectrophotometer at 595-600 nm. After 18-20 hours of aerobic growth (200-250 rpm) at 37° C., 100 μl cultures with an OD of <0.06 were scored as no growth. […]

[2] = test system: multi-drug-resistant strain of Acinetobacter baumannii (AYE); test: MIC of colistin, meropenem, tobramycin with added PPMO (microdilution), synergy by isoboles; details: for MIC: Acinetobacter baumannii
Protocol: Minimal Inhibitory Concentration Assays. Minimal inhibitory concentration (MIC) assays were performed in Mueller Hinton II medium using the microdilution method as described by the Clinical and Laboratory Standards Institute (CLSI). Optical density (OD) of cultures was read in a microplate spectrophotometer at 595-600 nm. After 18-20 hours of aerobic growth (200-250 rpm) at 37° C., 100 μl cultures with an OD of <0.06 were scored as no growth.
Synergy Studies. MICs were performed with a PPMO and a classic antibiotic (as indicated) in a 96 well plate. The PPMO was diluted first horizontally down the plate and the classic antibiotic was diluted across the rows of the plate. Inhibition was determined by visual observation and OD600 (see Berenbaum et al., J Antimicrob Chemother 12:555-563, 1983; and Berenbaum, J Infect Dis 137:122-130, 1978). […] Synergy was quantified using the method of isoboles as described (see Tallarida, Genes Cancer. 2:1003-8, 2011): (Effective concentration of antibiotic/MIC of antibiotic)+(Effective concentration of PPMO/MIC of PPMO). Calculated values less than 1 indicated synergy.
The MIC of the antibiotics colistin, meropenem, and tobramycin was measured using the microdilution method of the Clinical Laboratory Standards Institute in a 96-well microtiter plate format. Multiple, identical dilution series of each antibiotic were included on each microtiter plate. In each dilution series of antibiotic, a fixed amount of PPMO was added. Each dilution series of antibiotic included a different concentration of PPMO.

E. coli SMS-3-5 = test: MIC of classical antibiotics with added PPMOs that target resistance genes; type: cell-based
Source text: FIGS. 15A-15B show the minimum inhibitory concentration (MIC) of classical antibiotics with added PPMOs that target resistance genes in E. coli SMS-3-5. (FIG. 15A) MIC of ampicillin with blaT-(RXR)4XB (PPMO#66). (FIG. 15B) MIC of chloramphemicol with cmlA-(RXR)4XB (PPMO#67). N=3.
Minimal Inhibitory Concentration Assays.
Modulating antibiotic resistance with PPMOs could be an alternative therapeutic strategy. As proof of concept, PPMOs were designed to target specific, non-essential antibiotic resistance genes. blaT is part of the TEM beta-lactamase family and is found in environmental strains of E. coli, like SMS-3-5.

A. baumannii AYE [3] = test: Transmission electron microscopy of PPMO-treated bacteria; type: cell-based; details: 40 μM
A. baumannii AYE [4] = test: MIC of tobramycin with adeA PPMO in nutrient rich and minimal media; type: cell-based; details: for MIC of tobramycin with adeA PPMO: 8 μM adeA PPMO

Compound: PPMO#6: acpP PPMO ATATCGCTCAC; 5' (RXR)4XB, 3' acetyl (all phosphorodiamidate morpholino (PMO), 5' {(RXR)4XB}, 3' {Acetyl}; further chemistry not given here)
- IC75 MIC [1]: 2 µM

Compound: C[C@@H](O)[C@H]1C(=O)N2C(C(=O)O)=C(S[C@@H]3CN[C@H](C(=O)N(C)C)C3)[C@H](C)[C@H]12 [meropenem, reference compound]
- MIC ([2]; read-out: MIC of meropenem): 2 µg/mL

Compound: PPMO#67: cml PPMO TCCTTCTGATT; 5' TEG, 3' (RXR)4XB (listed as DNA, chemistry not fully specified)
- effect of increasing concentrations of cmlA PPMO on MIC of chloramphenicol (E. coli SMS-3-5; FIG. 15B): progressively decreases in a dose-dependent fashion

Compound: colistin [reference compound]
- MIC of colistin ([2]; without PPMO): 1 µg/mL

Compound: O=C(N[C@H](CO)[C@H](O)c1ccc([N+](=O)[O-])cc1)C(Cl)Cl [chloramphenicol, reference compound]
- MIC (E. coli SMS-3-5; Escherichia coli, SMS35, chloramphenicol alone): > 512 µg/mL

Compound: PPMO#7: acpP PPMO ATATCGCTCAC; 5' TEG, 3' (RXR)4XB (all phosphorodiamidate morpholino (PMO), 5' {TEG}, 3' {(RXR)4XB}; further chemistry not given here)
- cell morphology by TEM (A. baumannii AYE [3]; 6 hours of incubation, MHII media): cell wall disruption
- earliest time at which cell wall disruption was seen (A. baumannii AYE [3]; data not shown): 3 h
- IC75 MIC [1]: 4 µM
- MIC of colistin in the presence of PPMO ([2]; 2 μM of PPMO): 0.25 µg/mL
- MIC of tobramycin in the presence of PPMO ([2]; 4 μM PPMO): 2 µg/mL
- synergy (method of isoboles; values less than 1 indicate synergy), colistin + PPMO ([2]; colistin): 0.75
- synergy (method of isoboles), meropenem + PPMO ([2]; meropenem): 0.75
- synergy (method of isoboles), tobramycin + PPMO ([2]; tobramycin): 0.625

Compound: NC[C@H]1O[C@H](O[C@H]2[C@H](O)[C@@H](O[C@H]3O[C@H](CO)[C@@H](O)[C@H](N)[C@H]3O)[C@H](N)C[C@@H]2N)[C@H](N)C[C@@H]1O [tobramycin, reference compound]
- MIC of tobramycin alone (A. baumannii AYE [4]; AB Minimal Media): 64 µg/mL
- MIC (A. baumannii AYE [4]; Acinetobacter baumannii, MHII, read-out: MIC of tobramycin alone): 64 µg/mL
- MIC ([2]; read-out: MIC of tobramycin): 64 µg/mL

Compound: PPMO#65: adeA PPMO ATACTGTCCAA; 5' TEG, 3' (RXR)4XB (listed as DNA, chemistry not fully specified)
- MIC of tobramycin with adeA PPMO (A. baumannii AYE [4]; MHII): 4 µg/mL
- MIC of tobramycin with adeA PPMO (A. baumannii AYE [4]; minimal media): 1 µg/mL

Compound: PPMO#66: blaT PPMO CTCTTCCTTTT; 5' TEG, 3' (RXR)4XB (listed as DNA, chemistry not fully specified)
- effect of increasing concentrations of blaT PPMO on MIC of ampicillin (E. coli SMS-3-5; FIG. 15A): progressively decreased
